Data set [1] has as its system claudin-1. The experiment in a line: Claudin-1 expression following suppression of claudin-5 (Western blot, double immunostaining). The format is in vivo, C57/Bl6 mice.
Data set [2] concerns BRB. The experiment in a line: BRB permeability to Hoechst (562 Da), retinal cryosections and flatmounts. The format is in vivo, C57/Bl6 mice. As to the method: In order to determine the permeability of brain and retinal microvessels to a molecule of 562 Daltons, mice were perfused through the left ventricle with 500 μl/g body weight of PBS containing 100 μg/ml Hoechst stain H33342 (Sigma Aldrich, Ireland) and 1 mg/ml FITC-Dextran-4 (FD-4) 24, 48, 72 hours and 1 week post-hydrodynamic delivery of claudin-5 siRNA. Following perfusion, the whole brain was dissected and placed in 4% PFA pH 7.4 overnight at 4° C. and subsequently washed 4×15 mins with PBS. Brains were then embedded in 4% agarose and 50 μm sections were cut using a Vibratome®. Whole eyes were removed and fixed with 4% PFA, and following washing with PBS and cryoprotection using a sucrose gradient, 12 μm cryosections were cut using a cryostat. Following analysis of retinal cryosections with an Olympus FluoView™ FV1000 Confocal microscope, images were oriented correctly using Adobe® Photoshop®.

Data set [3] has as its system BBB. The experiment in a line: MRI assessment of BBB integrity with contrasting agent Gd-DTPA (742 Da). It is filed as in vivo, C57/Bl6 mice. As to the method:
Following injection of siRNA and using appropriate controls, BBB integrity was assessed in vivo via MRI, using a dedicated small rodent Bruker BioSpec 70/30 (i.e. 7 T, 30 cm bore) with an actively shielded USR Magnet. Mice were anaesthetised with isofluorane, and physiologically monitored (ECG, respiration and temperature) and placed on an MRI-compatible support cradle, which has a built-in system for maintaining the animal's body temperature at 37° C. The cradle was then positioned within the MRI scanner. Accurate positioning is ensured by acquiring an initial rapid pilot image, which is then used to ensure the correct geometry is scanned in all subsequent MRI experiments. Upon insertion into the MRI scanner, high resolution anatomical images of the brain were acquired (100 μm in-plane and 500 μm through-plane spatial resolution). BBB integrity was then visualised in high resolution T1 weighted MR images before and after injection of a 0.1 mM/L/kg bolus of Gd-DTPA (Gadolinium diethylene-triamine pentaacetic acid), administered via the tail vein.
Gd-DTPA was injected in the tail vein to assess whether Gd-TPA would permeate across the BBB. Following injection of siRNA and using appropriate controls, BBB integrity to a molecule of 742 Daltons (Gd-DTPA) was assessed via MRI, using a dedicated small rodent Bruker BioSpec 70/30 (i.e. 7 T, 30 cm bore) with an actively shielded USR Magnet. Mice were anaesthetised with isofluorane, and physiologically monitored (ECG, respiration and temperature) and placed on an MRI-compatible support cradle, which has a built-in system for maintaining the animal's body temperature at 37° C. The cradle was then positioned within the MRI scanner. Accurate positioning is ensured by acquiring an initial rapid pilot image, which is then used to ensure the correct geometry is scanned in all subsequent MRI experiments. Upon insertion into the MRI scanner, high resolution anatomical images of the brain were acquired (100 μm in-plane and 500 μm through-plane spatial resolution). BBB integrity was then visualised in high resolution T1 weighted MR images before and after injection of a 0.1 mM/L/kg bolus of Gd-DTPA (Gadolinium diethylene-triamine pentaacetic acid), administered via the tail vein. Following injection of Gd-DTPA, repeated 3 minute T1-weighted scans were performed over a period of 30 minutes, and images shown are representative of the final scans of this 30 minute period. Statistical analysis of all densitometric results of combined regions of the Cerebellum, Hippocampus and Cortex was performed using ANOVA, with significance represented by a P value of ≦0.05, and results are presented both graphically and in a quantitative image depicting the rate of Gd-DTPA deposition within the brain. All MRI scans were performed on 2 mice from each experimental treatment.

The subject of data set [4] is iBRB. The experiment in a line: MRI analysis of Gd-DTPA diffusion across the iBRB (eye). The format is in vivo, mice. The note with it: 48 hours post-injection.
For data set [5], the system named is endothelial cells of heart, liver, lung and kidney. The experiment in a line: Endothelial cell morphology of major organs (Griffonia simplicifolia-isolectin B4 staining). The format is in vivo, mouse. The note with it: all time points; vs control groups. The procedure: Following hydrodynamic injection of siRNA targeting claudin-5, cryosections were prepared of all the major organs, the heart, liver, lung and kidney. Sections were incubated overnight at 4° C. with HRP-conjugated Griffonia simplicifolia-isolectin B4 in order to stain the endothelial cells of organs.

Data set [6] concerns claudin-5. The experiment in a line: Claudin-5 expression in retina after siRNA injection (Western blot, retinal flatmounts). The format is in vivo, mice.

“Also recorded” adds a separate entry of the source.

From patent US9540649B2, “Method for opening tight junctions” (The Provost, Fellows and Scholars of the College of the …, priority 2007, dated 2017) come the findings set out here.

For the substance “claudin-5 siRNA: siRNA, sense CGUUGGAAAUUCUGGGUCUUU (SEQ ID NO: 1), antisense AGACCCAGAAUUUCCAACGUU (SEQ ID NO: 2) (listed as RNA, chemistry not given here)”, the “claudin-1 (23 kDa) expression, Western blot” value in data set [1] (24, 48, 72 hours and 1 week post delivery of claudin-5 siRNA) was “no changes at any time points”. Further, the “claudin-1 expression, double immunostaining in brain cryosections” value in data set [1] (each time point post-injection of claudin-5 siRNA) is “remain similar to those observed in the control groups”. Moreover, the “Hoechst staining in retinal flatmounts” value in data set [2] (24 and 48 hours post injection) is on record as “stain extravascular nuclei”. Moreover, the “extravasation of Hoechst in 12 μm retinal cryosections” value in data set [2] (24 hours post delivery) is given as “Inner Nuclear Layer (INL) appearing stained”; in data set [2] (48 hours post delivery) it was “distinct Outer Nuclear Layer (ONL) staining”. The “extravasation of Hoechst H33342 from retinal microvessels, retinal cryosections” value in data set [2] (up to 48 hour post-delivery) is “staining the Inner Nuclear Layer (INL) and Outer Nuclear Layer (ONL) of the retina”. The “densitometric analysis of MRI contrasting, Cerebellum, Hippocampus and Cortex combined” value in data set [3] (24 hours and 48 hours post injection, vs control groups) is on record as “significant increase in contrasting”. Besides, the “Gd-DTPA (742 Da) passage across BBB, MRI” value was “Gd-DTPA crossed the BBB and was deposited within the brain” in data set [3] (24 hours post-injection); “Gd-DTPA crossed the BBB and was deposited within the brain; also recorded: Gd-DTPA crossed the BBB and was deposited in the parenchymal tissue of the brain; also recorded: widespread and intense contrasting throughout the brain; also recorded: extremely large quantities of Gd-DTPA were deposited in the brain” in data set [3] (48 hours post-injection); “enhanced contrasting within the brain” in data set [3] (48 hours post-injection, listed as siRNA targeting claudin-5); “intact barrier with no deposition of Gd-DTPA” in data set [3] (72 hours or 1 week post-injection); “nor was it present; also recorded: no deposition of Gd-DTPA” in data set [3] (72 hours or 1 week post-injection, listed as siRNA targeting claudin-5). The “Gd-DTPA contrasting in the eye / iBRB integrity, MRI” value is recorded as “Strong contrasting” in data set [4] and “iBRB was compromised” in data set [4] (listed as siRNA targeting claudin-5). For the same substance, the “endothelial cell morphology in liver, lung, kidney and heart” value in data set [5] is “appeared similar at all time points and in all major organs”. The “claudin-5 expression in retinal flatmounts, immunohistochemistry” value in data set [6] (24, 48 and 72 hours post injection, vs non-targeting siRNA) is “decreased localisation of claudin-5 at the periphery of endothelial cells”. Further, in data set [6] (48 hours post injection), the “claudin-5 expression in retinal protein lysates, Western blot” value was “decreased expression”.
